Legend:
[1] = tested on: rabbit VX2-tumor; test: CT tumor perfusion imaging in a tumor bearing rabbit; format: in vivo; conditions: for HU value, ROI 1 Tumor vessel / HU value, ROI 2 Vessel / HU value, ROI 3 Tumor vital tissue / HU value, ROI 4 Tumor necrotic tissue / HU value, ROI 5 Whole tumor: 300 mgI/kg b.w.
From the text: The goal of the study was to explore the potential of different contrast media to visualize tumor perfusion.

[2] = tested on: SPF-mice; conditions: established marketed contrast media, comparison value; cited from earlier work
[3] = tested on: erythrocytes; test: Influence on erythrocyte morphology (damage index) in vitro; format: cell-based, human; conditions: final conc. 52.86 mg I/mL, value in % of maximal damage index
Experimental: Effects on red blood cells can be monitored in vitro, by exposing human blood to contrast agents, monitoring the appearance of deformed erythrocytes and deriving a “damage index” (D.I.) immediately after exposure, 1 and 2 hours after incubation. Parameters: Morphological changes of blood erxthrocytes;

[4] = Particle size during milling, PCS; format: physicochemical
From the text: This is the most widely used technique for particle size density determination and there are two main variations: photon correlation spectroscopy (PCS), and Fraunhofer Diffraction (FD). The choice is dictated by the particle size range under investigation. PCS works for sizes from a few nanometers up to about 1 micron (1000 nm), and FD works from about 1 micron up to millimeters. Both methods are called “ensemble averaging methods.” This means that the two relevant pieces of information needed to describe the particle size density (the actual size and the amount of material at that size) need to be deconvoluted from a single measurement of the amount of light scattered. This involves application of extremely complex theory and equally complex deconvolution algorithms (Kerker, M. (1969) The Scattering of Light and other Electromagnetic Radiation. Academic Press, New York). Thus, both measurement variations are intrinsically low resolution: typically the best that can be achieved is to differentiate between two class sizes (Weiner, B. B. (1984) Modern Methods of Particle Sizing. Barth, H. (ed). Wiley-Interscience). A technical issue arises when the particle size density extends across the one micron point, because then the two different algorithms/theories need to be applied and these cannot be combined together. Attempts to do so result in artifacts in the particle size density such that commercial instruments smooth the data resulting in even less resolution. Being based on light scattering, the fundamental value obtained is an “intensity-weighted” number (Di). Transforming the Di value into a Dv value presents several challenges. The first is that, in addition to the assumption of sphereicity, both PCS and FD weight the intensity differently, and the second is that the transform necessitates application of scattering and efficiency corrections (Weiner, B. B., Fairhurst, D., and Tscharnuter, W. W. (1991) Particle Size Distribution II—Assessment and Characterization. Provder, T. (ed). ACS Symposium Series No. 472. American Chemical Society). Although such corrections can be calculated from Mie theory (Kerker, M. (1969) The Scattering of Light and other Electromagnetic Radiation. Academic Press, New York), they are particle size dependent and require knowledge of the optical properties (complex refractive index) of both the particles and the surrounding medium. The result is that the Dv value (and if further transforms are made to Ds and Dn) can be widely inaccurate. However, for quality control purposes the technique is extremely fast and, for measurements on the same material, extremely reproducible. Laser light scattering may also be referred to as Dynamic Light Scattering (DLS) and generally refers to the PCS technique. Asymmetrical flow field-flow-fractionation (AF4) is a newer method based on light scattering which may be employed. The benefit A4F is that the method is able to separate nanoparticle mixtures prior to DLS analysis.
(§1) N1177 was milled to the desired particle size distribution. The particle size during milling was monitored in a preliminary study by periodically measuring particle size using XDC and PCS instruments.

[5] = Particle size during milling, XDC; format: physicochemical
From the text: In one embodiment, XDC (X-ray disc centrifuge sedimentometry) is used to measure particle size distribution. This is one of the most precise methods available for inorganic materials. The technique is based on the fact that particles of a different size (and of the same density) will take different times to travel between two points under the same force (e.g., gravity, centrifugal force): a larger particle will travel faster than a small particle. The derivation of the Stokes' equation for centrifugal sedimentation has been described many times in the literature (Thomas, J. C., and Fairhurst, D. (1991) Surface Phenomena and Fine Particles in Water-based Coatings and Paints. Sharma, M. K., and Micale, F. J. (eds), Plenum Press, New York). The relationship between size and the time taken is a square function. Thus, if a particle of (for example) one micron, takes one second to traverse a given distance, a 0.1 micron particle will take 100 seconds. With a distribution a particle sizes, the particles will effectively fractionate as they move under the proscribed (centrifugal) force. Because time can be measured extremely precisely, the sizes detected can be measured with great precision. The method used to determine the “amount” of material at any given size is X-ray absorbtion. For many inorganic materials, X-rays are absorbed in proportion to mass. The particle size density is therefore “mass-weighted.” Since, for a given particle density, mass is proportional to volume, a “volume-weighted” value (Dv) can be calculated for particle size density. Making the assumption that the particles are spherical, Dv can be transformed into either a surface-weighted value (Ds) or a number-weighted value (Dn). The latter number can be compared with the size determined from electron microscopy. For particle sizes in the colloidal domain (less than 1 micron), the assumption of sphericity is quite reasonable and becomes more so as the particle size gets smaller into the deep sub-micron (<100 nm) and the true nanometer (ca 10 nm) range. The size range that can be accommodated in XDC measurements is dictated only by the width of the particle size density, e.g., how long the measurement will take. The XDC method can be quite time consuming for a very broad particle size density.
as §1

Structure (SMILES): COCC(=O)Nc1c(I)c(C(=O)NCC(O)CO)c(I)c(C(=O)N(C)CC(O)CO)c1I (centres unmarked) [Ultravist]
- HU value, ROI 1 Tumor vessel [1]: 95 HU
- HU value, ROI 2 Vessel [1]: 294 HU
- HU value, ROI 3 Tumor vital tissue [1]: 30 HU
- HU value, ROI 4 Tumor necrotic tissue [1]: 4 HU
- HU value, ROI 5 Whole tumor [1]: 37 HU
- tumor perfusion (intra-/extravasal) ([1]; dynamic CT 0-80 s): intra- and extravasal perfusion
- LD50 [2]: > 12 g Iodine/kg bw
- Damage index after incubation ([3]; 0 h): 31.2%
- Damage index after incubation ([3]; 1 h): 12.2%
- Damage index after incubation ([3]; 2 h): 24.4%

Structure (SMILES): CCOC(=O)CCCCCOC(=O)c1c(I)c(NC(C)=O)c(I)c(NC(C)=O)c1I [Compound N1177, 6-ethoxy-6-oxohexy-3,5-bis(acetylamino)-2,4,6-triiodobenzoate]
- Mean Effective Diameter (PCS) ([4]; Milled Day 3): 158 nm
- Mean Effective Diameter (PCS) ([4]; Milled Day 4): 151 nm
- Mean Effective Diameter (PCS) ([4]; Milled Day 5): 149 nm
- Mean Effective Diameter (PCS) ([4]; Milled Day 6): 148 nm
- Mean Effective Diameter (PCS) ([4]; Milled Day 7): 147 nm
- Mean Effective Diameter (PCS) ([4]; T = 0 (unmilled)): 236 nm
- HU value, ROI 1 Tumor vessel [1]: 81 HU
- HU value, ROI 2 Vessel [1]: 307 HU
- HU value, ROI 3 Tumor vital tissue [1]: 5 HU
- HU value, ROI 4 Tumor necrotic tissue [1]: 9 HU
- HU value, ROI 5 Whole tumor [1]: 13 HU
- Mean Size DN (XDC) ([5]; Milled Day 3): 84 nm
- Mean Size DV (XDC) ([5]; Milled Day 3): 148 nm
- Mean Size DN (XDC) ([5]; Milled Day 5): 79 nm
- Mean Size DV (XDC) ([5]; Milled Day 5): 143 nm
- Mean Size DN (XDC) ([5]; Milled Day 7): 77 nm
- Mean Size DV (XDC) ([5]; Milled Day 7): 138 nm
- Mean Size DN (XDC) ([5]; T = 0 (unmilled)): 173 nm
- Mean Size DV (XDC) ([5]; T = 0 (unmilled)): 424 nm
